System: IL-1b
Test: Mouse BMDM IL-1b Assay
Format: cell-based
Conditions: Macrophage; C57BL6 bone marrow derived macrophages; 200 ng/mL Ultrapure LPS-B5 3 hours, compound 30 minutes, 5 mM ATP 45 minutes; mouse IL-1b ELISA of supernatant
Protocol: Example 8: Mouse BMDM IL-1b Assay
Mouse bone marrow cells from C57BL6 tibia and femur were culture in complete Isocov's Media supplemented with 20 ng/mL MCSF (BMDM media) at a density of 50 million cells/15 cm Petri dish. Fresh media was changed every 3 days, and bone marrow derived macrophages were collected, washed, and counted on day 7. Cells were seeded into 96 well plates at a density of 5×10^4 cells per well in 100 uL of BMDM media and cultured overnight. The cells were stimulated at 37° C. with 200 ng/mL Ultrapure LPS-B5 for 3 hours before pre-diluted compounds were added. 30 minutes after compound addition, 5 mM ATP was added for the secondary stimulation for 45 minutes. After stimulation, the plates were briefly spun down, and 50 uL of supernatant was harvested from each well. ELISA for mouse IL-1b was performed with 1:10 and 1:100 diluted supernatant using pre-coated kits. IL-1b concentrations were calculated based on pre-titrated standards, and compound inhibition IC50 is generated using the Levenberg Marquardt damped lease-square method.

Row | IC50 | Compound
1 | < 0.1 µM | CC1(O)c2cc(S(=O)(=O)NC(=O)Nc3c4c(cc5c3CCC5)CCC4)oc2C2CCC1C2 (stereo not shown) [Compound 6, N-((1,2,3,5,6,7-hexahydro-s-indacen-4-yl)carbamoyl)-4-hydroxy-4-methyl-5,6,7,8-tetrahydro-4H-5,8-methanocyclohepta[b]furan-2-sulfonamide]
2 | < 0.1 µM | O=C(Nc1c2c(cc3c1CCC3)CCC2)NS(=O)(=O)c1cc2c(o1)C1CCC(C1)C2=O (stereo not shown) [Compound 7, N-((1,2,3,5,6,7-hexahydro-s-indacen-4-yl)carbamoyl)-4-oxo-5,6,7,8-tetrahydro-4H-5,8-methanocyclohepta[b]furan-2-sulfonamide]
3 | < 0.1 µM | O=C(Nc1c2c(cc3c1CCC3)CCC2)NS(=O)(=O)c1cc2c(o1)C1CCC(C1)C2=NO (stereo not shown) [Compound 11, N-((1,2,3,5,6,7-hexahydro-s-indacen-4-yl)carbamoyl)-4-(hydroxyimino)-5,6,7,8-tetrahydro-4H-5,8-methanocyclohepta[b]furan-2-sulfonamide]
4 | < 0.1 µM | CC1(O)c2cc(S(=O)(=O)NC(=O)Nc3c4c(c(Br)c5c3CCC5)CCC4)oc2C2CCC1C2 (stereo not shown) [Compound 18, N-((8-bromo-1,2,3,5,6,7-hexahydro-s-indacen-4-yl)carbamoyl)-4-hydroxy-4-methyl-5,6,7,8-tetrahydro-4H-5,8-methanocyclohepta[b]furan-2-sulfonamide]
5 | < 0.1 µM | O=C(Nc1c2c(c(Cl)c3c1CCC3)CCC2)NS(=O)(=O)c1cc2c(o1)C1CCC(C1)C2O (stereo not shown) [Compound 19, N-((8-chloro-1,2,3,5,6,7-hexahydro-s-indacen-4-yl)carbamoyl)-4-hydroxy-5,6,7,8-tetrahydro-4H-5,8-methanocyclohepta[b]furan-2-sulfonamide]
6 | < 0.1 µM | CC1(O)c2cc(S(=O)(=O)NC(=O)Nc3c4c(cc5c3CCC5)CCC4)oc2C2CCC1CC2 (stereo not shown) [Compound 21, N-((1,2,3,5,6,7-hexahydro-s-indacen-4-yl)carbamoyl)-4-hydroxy-4-methyl-5,6,7,8-tetrahydro-4H-5,8-ethanocyclohepta[b]furan-2-sulfonamide]
7 | < 0.1 µM | O=C(Nc1c2c(cc3c1CCC3)CCC2)NS(=O)(=O)c1cc2c(o1)C1CCC(CC1)C2O (stereo not shown) [Compound 22, N-((1,2,3,5,6,7-hexahydro-s-indacen-4-yl)carbamoyl)-4-hydroxy-5,6,7,8-tetrahydro-4H-5,8-ethanocyclohepta[b]furan-2-sulfonamide]
8 | < 0.1 µM | O=C(Nc1c2c(cc3c1CCC3)CCC2)NS(=O)(=O)c1cc2c(o1)C1CCC(CC1)C2=NO [Compound 24, N-((1,2,3,5,6,7-hexahydro-s-indacen-4-yl)carbamoyl)-4-(hydroxyimino)-5,6,7,8-tetrahydro-4H-5,8-ethanocyclohepta[b]furan-2-sulfonamide]
9 | 0.1 to 1 µM | CC(C)c1ccc(Cl)c(C(C)C)c1NC(=O)NS(=O)(=O)c1cc2c(o1)C1CCC(C1)C2O (stereo not shown) [Compound 25, N-((3-chloro-2,6-diisopropylphenyl)carbamoyl)-4-hydroxy-5,6,7,8-tetrahydro-4H-5,8-methanocyclohepta[b]furan-2-sulfonamide]
10 | 0.1 to 1 µM | O=C(Nc1c2c(cc3c1CCC3)CCC2)NS(=O)(=O)c1ccc2c(c1)C(O)C1CCC2CC1 (stereo not shown) [Compound 33, N-((1,2,3,5,6,7-hexahydro-s-indacen-4-yl)carbamoyl)-9-hydroxy-6,7,8,9-tetrahydro-5H-5,8-ethanobenzo[7]annulene-2-sulfonamide]
11 | 0.1 to 1 µM | O=C(Nc1c2c(cc3c1CCC3)CCC2)NS(=O)(=O)c1ccc2c(c1)/C(=N\O)C1CCC2CC1 [Compound 35, (Z)-N-((1,2,3,5,6,7-hexahydro-s-indacen-4-yl)carbamoyl)-9-(hydroxyimino)-6,7,8,9-tetrahydro-5H-5,8-ethanobenzo[7]annulene-2-sulfonamide]
12 | < 0.1 µM | CC(C)c1ccc(F)c(C(C)C)c1NC(=O)NS(=O)(=O)c1cc2c(o1)C1CCC(C1)C2(C)O (stereo not shown) [Compound 36, N-((3-fluoro-2,6-diisopropylphenyl)carbamoyl)-4-hydroxy-4-methyl-5,6,7,8-tetrahydro-4H-5,8-methanocyclohepta[b]furan-2-sulfonamide]
13 | 0.1 to 1 µM | CC(C)c1ccc(F)c(C(C)C)c1NC(=O)NS(=O)(=O)c1cc2c(o1)C1CCC(C1)C2O (stereo not shown) [Compound 37, N-((3-fluoro-2,6-diisopropylphenyl)carbamoyl)-4-hydroxy-5,6,7,8-tetrahydro-4H-5,8-methanocyclohepta[b]furan-2-sulfonamide]

Further lines, the compound ahead of its results:

Row | Compound | IC50
14 | O=C(Nc1c2c(cc3c1CCC3)CCC2)NS(=O)(=O)c1cc2c(o1)C1CCC(C1)C2O (stereo not shown) [Compound 9, N-((1,2,3,5,6,7-hexahydro-s-indacen-4-yl)carbamoyl)-4-hydroxy-5,6,7,8-tetrahydro-4H-5,8-methanocyclohepta[b]furan-2-sulfonamide] | < 0.1 µM
15 | CC(C)c1cccc(C(C)C)c1CC(=O)NS(=O)(=O)c1cc2c(o1)C1CCC(C1)C2=O (stereo not shown) [Compound 14, 2-(2,6-diisopropylphenyl)-N-((4-oxo-5,6,7,8-tetrahydro-4H-5,8-methanocyclohepta[b]furan-2-yl)sulfonyl)acetamide] | 1 to 10 µM
16 | CC(C)c1cccc(C(C)C)c1CC(=O)NS(=O)(=O)c1cc2c(o1)C1CCC(C1)C2O (stereo not shown) [Compound 15, 2-(2,6-diisopropylphenyl)-N-((4-hydroxy-5,6,7,8-tetrahydro-4H-5,8-methanocyclohepta[b]furan-2-yl)sulfonyl)acetamide] | 1 to 10 µM
17 | CC(C)c1cccc(C(C)C)c1CC(=O)NS(=O)(=O)c1cc2c(o1)C1CCC(C1)C2(C)O (stereo not shown) [Compound 16, 2-(2,6-diisopropylphenyl)-N-((4-hydroxy-4-methyl-5,6,7,8-tetrahydro-4H-5,8-methanocyclohepta[b]furan-2-yl)sulfonyl)acetamide] | 0.1 to 1 µM
18 | O=C(Nc1c2c(c(Br)c3c1CCC3)CCC2)NS(=O)(=O)c1cc2c(o1)C1CCC(C1)C2O (stereo not shown) [Compound 17, N-((8-bromo-1,2,3,5,6,7-hexahydro-s-indacen-4-yl)carbamoyl)-4-hydroxy-5,6,7,8-tetrahydro-4H-5,8-methanocyclohepta[b]furan-2-sulfonamide] | 0.1 to 1 µM
19 | CC1(O)c2cc(S(=O)(=O)NC(=O)Nc3c4c(c(Cl)c5c3CCC5)CCC4)oc2C2CCC1C2 (stereo not shown) [Compound 20, N-((8-chloro-1,2,3,5,6,7-hexahydro-s-indacen-4-yl)carbamoyl)-4-hydroxy-4-methyl-5,6,7,8-tetrahydro-4H-5,8-methanocyclohepta[b]furan-2-sulfonamide] | < 0.1 µM
20 | O=C(Nc1c2c(cc3c1CCC3)CCC2)NS(=O)(=O)c1cc2c(o1)C1CCC(CC1)C2=O [Compound 23, N-((1,2,3,5,6,7-hexahydro-s-indacen-4-yl)carbamoyl)-4-oxo-5,6,7,8-tetrahydro-4H-5,8-ethanocyclohepta[b]furan-2-sulfonamide] | < 0.1 µM
21 | CC(C)c1ccc(Cl)c(C(C)C)c1NC(=O)NS(=O)(=O)c1cc2c(o1)C1CCC(C1)C2(C)O (stereo not shown) [Compound 26, N-((3-chloro-2,6-diisopropylphenyl)carbamoyl)-4-hydroxy-4-methyl-5,6,7,8-tetrahydro-4H-5,8-methanocyclohepta[b]furan-2-sulfonamide] | 0.1 to 1 µM
22 | CC(C)c1cccc(C(C)C)c1NC(=O)NS(=O)(=O)c1cc2c(o1)C1CCC(C1)C2(C)O (stereo not shown) [Compound 27, N((2,6-diisopropylphenyl)carbamoyl)-4-hydroxy-4-methyl-5,6,7,8-tetrahydro-4H-5,8-methanocyclohepta[b]furan-2-sulfonamide] | < 0.1 µM
23 | CC(C)c1cc(F)cc(C(C)C)c1NC(=O)NS(=O)(=O)c1cc2c(o1)C1CCC(C1)C2(C)O (stereo not shown) [Compound 28, N-((4-fluoro-2,6-diisopropylphenyl)carbamoyl)-4-hydroxy-4-methyl-5,6,7,8-tetrahydro-4H-5,8-methanocyclohepta[b]furan-2-sulfonamide] | 0.1 to 1 µM
24 | CC(C)c1cc(Cl)cc(C(C)C)c1NC(=O)NS(=O)(=O)c1cc2c(o1)C1CCC(C1)C2(C)O (stereo not shown) [Compound 29, N-((4-chloro-2,6-diisopropylphenyl)carbamoyl)-4-hydroxy-4-methyl-5,6,7,8-tetrahydro-4H-5,8-methanocyclohepta[b]furan-2-sulfonamide] | 0.1 to 1 µM
25 | CC1(O)c2cc(S(=O)(=O)NC(=O)Nc3c4c(c(F)c5c3CCC5)CCC4)oc2C2CCC1C2 (stereo not shown) [Compound 30, N-((8-fluoro-1,2,3,5,6,7-hexahydro-s-indacen-4-yl)carbamoyl)-4-hydroxy-4-methyl-5,6,7,8-tetrahydro-4H-5,8-methanocyclohepta[b]furan-2-sulfonamide] | < 0.1 µM
26 | O=C(Nc1c2c(c(F)c3c1CCC3)CCC2)NS(=O)(=O)c1cc2c(o1)C1CCC(C1)C2O (stereo not shown) [Compound 31, N-((8-fluoro-1,2,3,5,6,7-hexahydro-s-indacen-4-yl)carbamoyl)-4-hydroxy-5,6,7,8-tetrahydro-4H-5,8-methanocyclohepta[b]furan-2-sulfonamide] | < 0.1 µM
27 | O=C(Nc1c2c(cc3c1CCC3)CCC2)NS(=O)(=O)c1ccc2c(c1)C(=O)C1CCC2CC1 [Compound 32, N-((1,2,3,5,6,7-hexahydro-s-indacen-4-yl)carbamoyl)-9-oxo-6,7,8,9-tetrahydro-5H-5,8-ethanobenzo[7]annulene-2-sulfonamide] | < 0.1 µM
28 | CC1(O)c2cc(S(=O)(=O)NC(=O)Nc3c4c(cc5c3CCC5)CCC4)ccc2C2CCC1CC2 (stereo not shown) [Compound 34, N-((1,2,3,5,6,7-hexahydro-s-indacen-4-yl)carbamoyl)-9-hydroxy-9-methyl-6,7,8,9-tetrahydro-5H-5,8-ethanobenzo[7]annulene-2-sulfonamide] | 0.1 to 1 µM

Source: patent publication US12351564B2, “NLRP3 modulators” (Zomagen Biosciences Ltd, priority 2019, dated 2025)
